The values below come from PubChem BioAssay AID179 (DTP/NCI, 2004).

Molecules are shown by their SMILES. Calls of active or inactive are those of the source.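 How the source made its calls: active means compounds giving half or more protection of infected cells from virus-caused growth loss, again on retest; inactive means the rest.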 Where a SMILES comes first, the peptide text is derived from it. [ ]: non-standard residue; d: D form. The star is where a group is joined. ξ: configuration not given here. Boc = CC(C)(C)OC(=O)*; ξV = CC(C)C(N)C(=O)O; OBn = c1ccc(CO*)cc1

This assay has as its system CEM cells HIV-1 protection, formazan growth assay. Put plainly: NCI AIDS Antiviral Assay. The following applies: for IC50: measured here: growth of uninfected CEM cells. The method in brief:
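Protection of CEM cells against HIV-1 was scored from cell growth (soluble formazan) across five concentrations, with parallel uninfected cells. Lack of protection may reflect toxicity.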

On to `O=S(=O)(O)c1cc(N=Nc2ccc(O)c3ncccc23)ccc1/C=C/c1ccc(N=Nc2ccc(O)c3ncccc23)cc1S(=O)(=O)O`, for which the EC50 is over 105 µM and the 50% inhibitory concentration (IC50) is over 105 µM.
Regarding `CC(=O)OCC1=C(C)C[C@H]([C@@H](COC(C)=O)C2CCC3C4C[C@H]5O[C@]56CC=CC(=O)[C@]6(C)C4CC[C@@]32C)OC1=O` (stereo not given in full), the EC50 is over 200 µM and the IC50 is 0.135 µM.
For `COC(=O)Nc1cn2ccsc2n1`, the outcome was inactive.
On the same count and under the same terms, next, `CN(C)CC/C(=N\Nc1ccc([N+](=O)[O-])cc1)c1ccccc1`: “inactive”.
Take `CC1CC(=O)Nc2ccccc2N1C(=O)C1CC1` (stereo not given): the EC50 is over 200 µM and the 50% inhibitory concentration (IC50) was over 200 µM.
Take `COc1ccc(C2(OC)Oc3ccccc3-c3nc4ccccc4nc32)cc1` (stereo not given): the EC50 was over 69.2 µM and the concentration for half-maximal inhibition (IC50) is over 69.2 µM.
Consider `CC(C)NCCCCCNc1cccc2cccnc12`, for which the EC50 is over 200 µM and the concentration for half-maximal inhibition (IC50) worked out at 28.8 µM.
For `C=CC[C@@]12CCC(=O)C=C1CCCC2=O`, the result was inactive.
With `CN1c2ccccc2N(C(=O)c2ccc([N+](=O)[O-])cc2)C(CC(=O)O)c2cccn21` (stereo not given), the EC50 is over 617 µM and the concentration for half-maximal inhibition (IC50) stood at 240 µM.
Consider `c1ccc2c3[nH]c(c2c1)=Nc1ccc(cc1)-c1nc2ccc(cc2o1)N=c1[nH]c(c2ccccc12)=Nc1ccc2nc(oc2c1)-c1ccc(cc1)N=3`, for which the EC50 is over 200 µM and the concentration for half-maximal inhibition (IC50) is 37.2 µM.
Regarding `CCOC1(NC(=O)N(C)C)C2CCCCC21` (stereo not given), the EC50 is over 200 µM and the IC50 was over 200 µM.
In the case of `Nc1nc(Cl)cc(NCC2(CO)CCC(O)C2)n1` (stereo not given), the EC50 is over 200 µM and the half-maximal inhibitory concentration (IC50) is over 200 µM.
For `NC(CSS(=O)(=O)O)=NCCCCc1ccccc1`, the EC50 is over 200 µM and the 50% inhibitory concentration (IC50) was 107 µM.
For `COc1ccc(/C=C2\CCOC2=O)cc1OC` the same measures were over 776 µM and 282 µM.
The corresponding values for `O=C(O)C1=CC(=C(c2ccc(O)c(C(=O)O)c2)c2ccc(O)c(C(=O)O)c2)C=CC1=O` are over 1660 µM and over 1660 µM.
For `Brc1ccc2nc(-c3ccccc3)c3ccccc3c2c1` the same measures were over 200 µM and over 200 µM.
Consider `COc1ccc(N=NN2CCCC2)cc1`, for which the EC50 was over 200 µM and the IC50 is 15.5 µM.
For the compound `CC(=O)NC1(C)C2CCC3(C)N=C(C)C1CC3C2` (stereo not given), the result was inactive.
For `CCCCOP(=O)(OCCCC)OP(=O)(OCCCC)OCCCC`, the EC50 was over 200 µM and the IC50 is over 200 µM.
`NC(Cc1ccc(CP(=O)(O)O)cc1)C(=O)O` (stereo not given): the EC50 is over 200 µM and the concentration for half-maximal inhibition (IC50) is over 200 µM.
Regarding `CS(=O)(=O)OCCN1CCN(C(=O)c2ccc(Cl)c3c(Nc4ccc(S(=O)(=O)N=C(N)N)cc4)c4ccccc4nc23)CC1`, the EC50 is over 33.9 µM and the IC50 is over 33.9 µM.
On to `O=C(O)c1ccccc1SCc1cccc2c(=O)c3ccc(Cl)cc3oc12`, for which the EC50 was 10.2 µM and the concentration for half-maximal inhibition (IC50) turned out to be 30.2 µM.
Turning to `Cc1nc(-c2nc(C)c(C(=O)/C=C/c3ccc(N(C)C)cc3)s2)sc1C(=O)/C=C/c1ccc(N(C)C)cc1`, the EC50 was over 34.7 µM and the IC50 was over 34.7 µM.
On to `COC(=O)/C(=C/c1ccc(OC)cc1)C(C(=O)O)=C1CCCC1`, for which the EC50 was over 158 µM.
In the case of `O=[N+]([O-])c1cc(-c2nnc(C34CC5CC(CC(C5)C3)C4)o2)cc([N+](=O)[O-])c1`, the EC50 was over 200 µM and the IC50 is over 200 µM.
Turning to `O=c1c(-c2ccccc2)c2oc(c1-c1ccccc1)CS(=O)(=O)CCC2`, the EC50 is over 97.7 µM and the concentration for half-maximal inhibition (IC50) amounted to 18.6 µM.
For `CC(=O)OCC1OC(n2cc(I)c(=O)[nH]c2=O)C(OC(C)=O)C(OC(C)=O)C1OC(C)=O` (stereo not given), the EC50 is over 437 µM and the IC50 is 282 µM.
Take `COc1cc2c(cc1OC)[C@@H]([C@H](O)c1ccccc1)NCC2`: the result was inactive.
For `NNC(N)=Nc1cccc2ccccc12`, the EC50 is over 200 µM and the 50% inhibitory concentration (IC50) was over 200 µM.
With `S=C1Nc2cnc3ccccc3c2SC1c1ccccc1` (stereo not given), the EC50 was over 200 µM and the IC50 is 56.2 µM.
Turning to `O=C(Nc1ccccc1C(=O)O)C(=O)C(C(=O)c1ccccc1-c1ccccc1)C1OC(=O)c2ccccc21` (stereo not given), the EC50 was over 50.1 µM and the IC50 was determined as 25.1 µM.
On to `O=C1C=CC(=C(c2ccc(O)cc2)c2c(Br)c(Br)c(Br)c(Br)c2S(=O)(=O)O)C=C1`, for which the outcome was inactive.
Turning to `COC1OC2=CCC3C(=O)N(c4ccccc4)C(=O)C3C2[C@H](OCc2ccccc2)C1OCc1ccccc1` (stereo not given in full), the outcome was inactive.
As to `CCN(CC)CC(C)(C)C(=O)/C=C/c1ccc(C)cc1`, the outcome was inactive.
Take `O=C1c2ccccc2N2OC3(N4CCOCC4)CCCC3C12c1ccccc1` (stereo not given): the EC50 was over 5.37 µM and the IC50 is over 5.37 µM.
On to `COC(=O)c1ccccc1CC1Cc2ccc3c(c2C1=O)CCC3` (stereo not given), for which the EC50 is over 200 µM and the IC50 is over 200 µM.
`O=C1C=C(Br)c2c(-c3ccccc3)oc3cccc1c23`: the result was inactive.
With `C#CC(C)(C)Oc1ccc2c(=O)c(-c3ccc(OC)c(OC)c3)coc2c1`, the EC50 was over 200 µM and the concentration for half-maximal inhibition (IC50) amounted to 22.4 µM.
For the compound `CCOC(=O)c1cc(-c2ccc([N+](=O)[O-])cc2)c([N+](=O)[O-])[nH]1`, the EC50 is over 200 µM and the IC50 turned out to be 7.94 µM.
The corresponding values for `S=C(NCCc1ccccc1)N1CCC(CCCC2CCN(C(=S)NCCc3ccccc3)CC2)CC1` are over 200 µM and over 200 µM.
`O=C(NO)C(=O)Nc1cc(Cl)ccc1Cl`: the EC50 is over 145 µM and the IC50 was determined as 66.1 µM.
The corresponding values for `Cc1ccc(-c2n[nH]c(=O)n2/N=C\c2ccccc2O)cc1` are over 200 µM and over 200 µM.
For `COC1/C=C/OC2(C)Oc3c(C)c(O)c4c(O)c(c(C=NN5C(C)CN(Cc6ccc(Cl)cc6)CC5C)c(O)c4c3C2=O)NC(=O)/C(C)=C/C=C/C(C)C(O)C(C)C(O)C(C)C(OC(C)=O)C1C` (stereo not given) the same measures were over 200 µM and 6.17 µM.
For `CC[C@@]1(OC(=O)CCC(=O)O)C(=O)OCc2c1cc1n(c2=O)Cc2cc3ccccc3nc2-1` the same measures were over 10 µM and 0.00708 µM.
For the compound `c1cc(-c2cscc2-c2ccsc2)cs1`, the EC50 is over 200 µM and the IC50 was 110 µM.
Take `COc1ccc2c(c1)OCCCN(C)OC2c1ccccc1` (stereo not given): the outcome was inactive.
For `Cc1cc(NS(=O)(=O)c2ccc(N=Nc3cc(S(=O)(=O)O)c4ccccc4c3O)cc2)ccc1N=Nc1ccc2cc(S(=O)(=O)O)cc(S(=O)(=O)O)c2c1`, the outcome was active.
Regarding `CCOc1cc(NCCCN)c2nc(OCc3ccccc3)ccc2c1`, the EC50 was over 200 µM and the half-inhibitory concentration (IC50) was found to be 25.7 µM.
Take `CC(C)C(NC(=O)CNC(=O)OC(C)(C)C)C(=O)NCC(=O)OCc1ccccc1` (stereo not drawn) (Boc-Gly-[ξV]-Gly-OBn): the EC50 is over 200 µM and the IC50 was over 200 µM.
Regarding `CSC1=C(C#N)C(=O)N(c2ccc(C)cc2)C(=S)C1C#N` (stereo not given), the EC50 is over 200 µM and the concentration for half-maximal inhibition (IC50) was 174 µM.
The corresponding values for `Cc1ncc([N+](=O)[O-])n1CC(O)Cn1cnc([N+](=O)[O-])n1` (stereo not given) are over 200 µM and over 200 µM.

As usually defined, the EC50 is the concentration giving half of the maximal effect. One may read the IC50 as the concentration that gives 50% inhibition.
